According to patent publication US20250136606A1, “MODULATORS OF TRPML, THEIR COMPOSITIONS AND METHODS OF USE” (Caraway Therapeutics, Inc., priority 2021, published 2025):
pEC50: −log10 of the molar value.

What was measured:
Assay type in all cases: cell-based
Conditions in all cases: fluorescent calcium assay
TRPML2 = target: T1, TRPML2 (Homo sapiens, UniProt Q8IZK6); assay: Fluorescent TRPML2 assay (performed as for TRPML1, substituting the TRPML2 subtype)
T1 construct: expressed in transfected cells
T1 sequence (Q8IZK6 1-566): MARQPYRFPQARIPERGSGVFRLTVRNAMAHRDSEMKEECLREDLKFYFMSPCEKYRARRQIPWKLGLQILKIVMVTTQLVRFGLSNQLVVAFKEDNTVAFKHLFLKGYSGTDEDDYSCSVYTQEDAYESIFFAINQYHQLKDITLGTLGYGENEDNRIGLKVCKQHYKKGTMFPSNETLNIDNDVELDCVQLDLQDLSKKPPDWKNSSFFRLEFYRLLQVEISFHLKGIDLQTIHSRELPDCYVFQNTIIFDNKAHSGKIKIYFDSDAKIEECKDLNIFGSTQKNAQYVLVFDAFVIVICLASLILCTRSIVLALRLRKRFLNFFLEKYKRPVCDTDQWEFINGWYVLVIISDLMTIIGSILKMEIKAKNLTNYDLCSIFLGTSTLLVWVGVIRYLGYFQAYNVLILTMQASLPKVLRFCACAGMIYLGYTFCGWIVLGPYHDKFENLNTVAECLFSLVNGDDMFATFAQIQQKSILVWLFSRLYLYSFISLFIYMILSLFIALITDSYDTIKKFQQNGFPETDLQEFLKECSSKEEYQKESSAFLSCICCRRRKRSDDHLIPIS
Outline: (§1)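 Calcium-influx readout: Fluo4 fluorescence at 480/540 nm, normalised to positive and negative controls per plate, EC50 fitted by non-linear regression. Cells were HEK-293 Trex stable lines, channel expression induced overnight with 0.5 ug/mL doxycycline; tested at 20 micromolar down to 6 nanomolar final, half-log steps, triplicate.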

TRPML1 = TRPML1 (Homo sapiens, UniProt Q9GZU1); assay: Fluorescent TRPML1 assay (Fluo4-AM calcium fluorescence in doxycycline-induced HEK-293 Trex cells)
Sequence of TRPML1 (Q9GZU1 whole entry L15A/L16A/L577A/L578A, form open): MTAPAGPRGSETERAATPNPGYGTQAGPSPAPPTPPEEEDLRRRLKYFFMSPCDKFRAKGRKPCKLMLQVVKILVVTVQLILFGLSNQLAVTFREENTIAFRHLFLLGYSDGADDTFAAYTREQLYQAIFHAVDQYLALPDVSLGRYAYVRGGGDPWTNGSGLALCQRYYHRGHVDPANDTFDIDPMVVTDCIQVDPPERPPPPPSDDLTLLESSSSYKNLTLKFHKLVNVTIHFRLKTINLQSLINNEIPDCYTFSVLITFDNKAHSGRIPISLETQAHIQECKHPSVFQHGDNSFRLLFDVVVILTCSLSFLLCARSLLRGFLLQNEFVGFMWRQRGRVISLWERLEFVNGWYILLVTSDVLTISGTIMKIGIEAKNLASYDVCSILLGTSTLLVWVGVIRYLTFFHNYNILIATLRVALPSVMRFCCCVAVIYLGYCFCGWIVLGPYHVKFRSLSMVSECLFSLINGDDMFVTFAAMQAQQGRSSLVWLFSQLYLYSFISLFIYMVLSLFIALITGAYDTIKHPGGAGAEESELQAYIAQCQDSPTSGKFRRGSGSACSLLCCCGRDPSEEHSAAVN
Outline: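 EC50 values come from non-linear regression of percent activity, normalized to on-plate positive and negative controls, with fluorescence read at 480 nm excitation and 540 nm emission. Fluo4-AM-loaded (1 µM) doxycycline-induced HEK-293 Trex cells expressing mutated human TRPML1 were exposed in 10 mM calcium Ringer's to 6 nM–20 µM compound, in triplicate.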

TRPML3 = target: T2, TRPML3 (Homo sapiens, UniProt Q8TDD5); assay: Fluorescent TRPML3 assay (performed as for TRPML1, substituting the TRPML3 subtype)
T2 construct: expressed in transfected cells
T2 sequence (Q8TDD5 1-553): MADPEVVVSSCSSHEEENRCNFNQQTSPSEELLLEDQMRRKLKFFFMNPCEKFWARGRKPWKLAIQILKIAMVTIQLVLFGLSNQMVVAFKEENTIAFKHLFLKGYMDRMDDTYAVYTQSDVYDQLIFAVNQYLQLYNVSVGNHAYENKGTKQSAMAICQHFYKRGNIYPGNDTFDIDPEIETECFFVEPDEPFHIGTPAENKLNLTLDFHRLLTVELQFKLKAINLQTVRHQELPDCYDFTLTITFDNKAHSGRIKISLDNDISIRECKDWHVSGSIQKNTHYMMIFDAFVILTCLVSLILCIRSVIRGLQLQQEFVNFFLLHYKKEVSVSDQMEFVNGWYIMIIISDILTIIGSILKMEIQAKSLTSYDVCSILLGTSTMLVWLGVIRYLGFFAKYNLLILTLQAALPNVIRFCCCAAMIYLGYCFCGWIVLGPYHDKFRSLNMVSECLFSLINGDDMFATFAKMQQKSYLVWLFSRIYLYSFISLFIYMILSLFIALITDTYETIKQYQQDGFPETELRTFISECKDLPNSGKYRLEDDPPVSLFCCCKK
Outline: as §1

Row | pEC50 (TRPML2) | pEC50 (TRPML1) | pEC50 (TRPML3) | SMILES
1 | 5.70 to 6.30 | > 7.00 | 6.30 to 7.00 | C[C@@H]1CN(c2ncnc3c2c(-n2ccnc2)cn3-c2cccc(Cl)c2)CCN1C(=O)OC(C)(C)C [Compound 342, tert-butyl (R)-4-(7-(3-chlorophenyl)-5-(1H-imidazol-1-yl)-7H-pyrrolo[2,3-d]pyrimidin-4-yl)-2-methylpiperazine-1-carboxylate]
2 | < 5.70 | 5.70 to 6.30 | 6.30 to 7.00 | C[C@H]1CN(C(=O)OC(C)(C)C)CCN1c1ncnc2c1c(C1CC1)nn2-c1cc(C#N)ccn1 [Compound 343]
3 | < 5.70 | 6.30 to 7.00 | 6.30 to 7.00 | C[C@H]1CN(C(=O)OC(C)(C)C)CCN1c1ncnc2c1c(N1CCOCC1)cn2C1CCCCC1 [Compound 344, tert-butyl (S)-4-(7-cyclohexyl-5-morpholino-7H-pyrrolo[2,3-d]pyrimidin-4-yl)-3-methylpiperazine-1-carboxylate]
4 | < 5.70 | 5.70 to 6.30 | 5.70 to 6.30 | C[C@H]1CN(C(=O)OC(C)(C)C)CCN1c1ncnc2c1c(C1CC1)cn2C1CCCOC1 (stereo partly drawn) [Compound 345, tert-butyl (3S)-4-(5-cyclopropyl-7-(tetrahydro-2H-pyran-3-yl)-7H-pyrrolo[2,3-d]pyrimidin-4-yl)-3-methylpiperazine-1-carboxylate]
5 | > 7.00 | > 7.00 | > 7.00 | CCOC(=O)N1CCN(c2ncnc3c2c(-c2ccccc2F)cn3-c2cc(C#N)ccn2)[C@@H](C)C1 [Compound 346, ethyl (S)-4-(7-(4-cyanopyridin-2-yl)-5-(2-fluorophenyl)-7H-pyrrolo[2,3-d]pyrimidin-4-yl)-3-methylpiperazine-1-carboxylate]
6 | > 7.00 | > 7.00 | > 7.00 | CC(C)OC(=O)N1CCN(c2ncnc3c2c(-c2ccccc2F)cn3-c2cc(C#N)ccn2)[C@@H](C)C1 [Compound 347, isopropyl (S)-4-(7-(4-cyanopyridin-2-yl)-5-(2-fluorophenyl)-7H-pyrrolo[2,3-d]pyrimidin-4-yl)-3-methylpiperazine-1-carboxylate]
7 | > 7.00 | > 7.00 | > 7.00 | CC(OC(=O)N1CCN(c2ncnc3c2c(-c2ccccc2F)cn3-c2cc(C#N)ccn2)[C@@H](C)C1)C(F)(F)F (stereo partly drawn) [Compound 348, 1,1,1-trifluoropropan-2-yl (3S)-4-(7-(4-cyanopyridin-2-yl)-5-(2-fluorophenyl)-7H-pyrrolo[2,3-d]pyrimidin-4-yl)-3-methylpiperazine-1-carboxylate]
8 | > 7.00 | > 7.00 | > 7.00 | C[C@H]1CN(C(=O)OCC(F)(F)F)CCN1c1ncnc2c1c(-c1ccccc1F)cn2-c1cc(C#N)ccn1 [Compound 349, 2,2,2-trifluoroethyl (S)-4-(7-(4-cyanopyridin-2-yl)-5-(2-fluorophenyl)-7H-pyrrolo[2,3-d]pyrimidin-4-yl)-3-methylpiperazine-1-carboxylate]
9 | > 7.00 | > 7.00 | > 7.00 | C[C@H]1CN(C(=O)OC(C)(C)C)CCN1c1ncnc2c1c(N1CCC1)cn2-c1cccc(C#N)c1 [Compound 350, tert-butyl (S)-4-(5-(azetidin-1-yl)-7-(3-cyanophenyl)-7H-pyrrolo[2,3-d]pyrimidin-4-yl)-3-methylpiperazine-1-carboxylate]
10 | > 7.00 | > 7.00 | > 7.00 | C[C@H]1CN(C(=O)OC(C)(C)C)CCN1c1ncnc2c1c(-c1ccccn1)cn2-c1cc(C#N)ccn1 [Compound 352, tert-butyl (S)-4-(7-(4-cyanopyridin-2-yl)-5-(pyridin-2-yl)-7H-pyrrolo[2,3-d]pyrimidin-4-yl)-3-methylpiperazine-1-carboxylate]
11 | > 7.00 | > 7.00 | > 7.00 | C[C@H]1CN(C(=O)OC(C)(C)C)CCN1c1ncnc2c1c(-c1cccnc1)cn2-c1cc(C#N)ccn1 [Compound 353, tert-butyl (S)-4-(7-(4-cyanopyridin-2-yl)-5-(pyridin-3-yl)-7H-pyrrolo[2,3-d]pyrimidin-4-yl)-3-methylpiperazine-1-carboxylate]
12 | > 7.00 | > 7.00 | > 7.00 | C[C@H]1CN(C(=O)OC(C)(C)C)CCN1c1ncnc2c1c(-c1ccncc1)cn2-c1cc(C#N)ccn1 [Compound 354, tert-butyl (S)-4-(7-(4-cyanopyridin-2-yl)-5-(pyridin-4-yl)-7H-pyrrolo[2,3-d]pyrimidin-4-yl)-3-methylpiperazine-1-carboxylate]
13 | > 7.00 | > 7.00 | > 7.00 | C[C@H]1CN(C(=O)OC(C)(C)C)CCN1c1ncnc2c1c(-c1ccncc1F)cn2-c1cc(C#N)ccn1 [Compound 355, tert-butyl (S)-4-(7-(4-cyanopyridin-2-yl)-5-(3-fluoropyridin-4-yl)-7H-pyrrolo[2,3-d]pyrimidin-4-yl)-3-methylpiperazine-1-carboxylate]
14 | 6.30 to 7.00 | > 7.00 | > 7.00 | C[C@@H]1CN(c2ncnc3c2c(N2CCCC2)cn3-c2cc(F)c(F)c(F)c2)CCN1C(=O)OC(C)(C)C [Compound 362, tert-butyl (R)-2-methyl-4-(5-(pyrrolidin-1-yl)-7-(3,4,5-trifluorophenyl)-7H-pyrrolo[2,3-d]pyrimidin-4-yl)piperazine-1-carboxylate]
15 | 5.70 to 6.30 | 6.30 to 7.00 | > 7.00 | C[C@@H]1CN(c2cn(-c3cccc(C#N)c3)c3ncnc(N4CCN(C(=O)OC(C)(C)C)C[C@@H]4C)c23)CCO1 [Compound 363, tert-butyl (S)-4-(7-(3-cyanophenyl)-5-((R)-2-methylmorpholino)-7H-pyrrolo[2,3-d]pyrimidin-4-yl)-3-methylpiperazine-1-carboxylate]
16 | 6.30 to 7.00 | > 7.00 | > 7.00 | C[C@H]1CN(C(=O)OC(C)(C)C)CCN1c1ncnc2c1c(C1CC1)cn2C12CCC(CC1)CC2 [Compound 364, tert-butyl (S)-4-(7-(bicyclo[2.2.2]octan-1-yl)-5-cyclopropyl-7H-pyrrolo[2,3-d]pyrimidin-4-yl)-3-methylpiperazine-1-carboxylate]
17 | 6.30 to 7.00 | > 7.00 | > 7.00 | C[C@H]1CN(C(=O)OC(C)(C)C)CCN1c1ncnc2c1c(C1CC1(F)F)cn2-c1cc(C#N)ccn1 (stereo partly drawn) [Compound 365, tert-butyl (3S)-4-(7-(4-cyanopyridin-2-yl)-5-(2,2-difluorocyclopropyl)-7H-pyrrolo[2,3-d]pyrimidin-4-yl)-3-methylpiperazine-1-carboxylate]
18 | 6.30 to 7.00 | > 7.00 | > 7.00 | CCN(CC)c1cn(-c2cccc(Cl)c2)c2ncnc(N3CCN(C(=O)OC(C)(C)C)C[C@@H]3C)c12 [Compound 366, tert-butyl (S)-4-(7-(3-chlorophenyl)-5-(diethylamino)-7H-pyrrolo[2,3-d]pyrimidin-4-yl)-3-methylpiperazine-1-carboxylate]
19 | 6.30 to 7.00 | > 7.00 | > 7.00 | C[C@@H]1CN(c2ncnc3c2c(-c2ccccn2)cn3-c2cc(C#N)ccn2)CCN1C(=O)OC(C)(C)C [Compound 367, tert-butyl (R)-4-(7-(4-cyanopyridin-2-yl)-5-(pyridin-2-yl)-7H-pyrrolo[2,3-d]pyrimidin-4-yl)-2-methylpiperazine-1-carboxylate]
20 | 5.70 to 6.30 | > 7.00 | > 7.00 | C[C@H]1CN(C(=O)OCC(F)(F)F)CCN1c1ncnc2c1c(C1CC1)cn2-c1cc(C#N)ccn1 [Compound 368, 2,2,2-trifluoroethyl (S)-4-(7-(4-cyanopyridin-2-yl)-5-cyclopropyl-7H-pyrrolo[2,3-d]pyrimidin-4-yl)-3-methylpiperazine-1-carboxylate]
